The text below walks through data of patent US11440906B2, “Biguanide derivatives and their rearrangement products for use in the treatment of cancer” (CENTRE NATIONAL DE LA RECHERCHE SCIENTIFIQUE, priority 2017, dated 2022).

Read-outs that look alike come from different tables or passages of the source.

The experiment concerns A375 Sensitive cells. Description: Viability test, trypan blue exclusion, A375 Sensitive cells. The format is cell-based, human. As to conditions: Homo sapiens, A-375, viable cells as percentage of DMSO control. From the text: Different melanoma cell lines were purchased from the American Tissue Culture Collection: A375 and WM9 cells are mutated on B-Raf, CDKN2A and PTEN proteins; SKmel28 cells are mutated on B-Raf and P53 proteins; 1205Lu cells are mutated on B-Raf and PTEN proteins; G-361 cells are mutated on B-Raf and CDKN2A proteins; C8161 cells are mutated on B-Raf and K-Ras proteins; WM3912 cells are mutated on B-Raf and CDKN2A proteins; MeWo cells are mutated on P53 and CDKN2A proteins; WM3918 presents no mutations on characteristic proteins.
For trypan blue staining, […] of cells (melanoma and normal human cells) were aseptically transferred to a 1.5 mL clear Eppendorf tube and incubated for 3 min at room temperature with an equal volume of 0.4% trypan blue solution. Viable cells were counted and the results are expressed as the percentage of the value of control cells. All the experiments are performed 3 times in triplicate.
A375 Sensitive cells were treated with different concentrations of the synthesized molecules (5.0 μM or 10 μM) for different times (24 hr or 48 hr) or with DMSO (Control) for 12 or 48 hr. At the end of the stimulation, viable cells were counted using the trypan blue dye exclusion method. The results are normalized as percentages compare to the control.
A375 Sensitive cells were treated with 5 μM of CRO15 for different times (2 hr, 4 hr, 6 hr, 8 hr, 12 hr, 24 hr or 48 hr) or with 5 μM of PLX4032 (B-Raf inhibitor) for 48 hr or with DMSO (Control) for 48 hr. At the end of stimulation, viable cells were counted using the trypan blue dye exclusion method. The results are normalized as percentages compare to the control and data means±SEM of three independent experiments performed in triplicate *p<0.05; **p<0.01; ***p<0.001.
A375 Sensitive cells were treated with different concentrations of CRO15 (0.5 μM, 2.5 μM, 5.0 μM, 7.5 μM, 50 μM) for 48 hr or with 5 μM of PLX4032 (B-Raf inhibitor) for 48 hr or with DMSO (Control) for 48 hr. At the end of the stimulation, viable cells were counted using the trypan blue dye exclusion method. The results are normalized as percentages compare to the control and data means±SEM of three independent experiments performed in triplicate *p<0.05; **p<0.01; ***p<0.001.
A375 sensitive and resistant melanoma cells were treated with 5 μM of CRO15 for 48 hr or with 5 μM of PLX4032 for 48 hr or with DMSO (Control). At 48 hours, viable cells were counted using the trypan blue dye exclusion method. The results are normalized as percentages compare to the control and data means±SEM of three independent experiments performed in triplicate *p<0.05; **p<0.01; ***p<0.001.

The mark [1] stands for this setting: 24 h, read-out: Viab A375 5 μM/ 24 h.
[2] abbreviates: 48 h, read-out: Viab A375 5 μM/ 48 h.
Setting [3] is: 24 h, read-out: Viab A375 10 μM/ 24 h.
Setting [4] is: 48 h, read-out: Viab A375 10 μM/ 48 h.

As for `Nc1nc(Nc2ccccc2SSc2ccccc2Nc2nc(N)nc(-c3c(Cl)cccc3Cl)n2)nc(-c2c(Cl)cccc2Cl)n1` [MTF 455, N2,N2′-(disulfanediylbis(2,1-phenylene))bis(6-(2,6-dichlorophenyl)-1,3,5-triazine-2,4-diamine)], the viability at 5 µM under setting [1] stood at 89% and the viability at 5 µM under setting [2] amounted to 108%. Further, the viability at 10 µM is, setting by setting: under setting [3], 32.3%; under setting [4], 69.5%.
Consider `N=C(NC(=N)c1ccc2c(c1)OCO2)Nc1nc2ccccc2s1` [MTF 383, N—(N-(benzo[d]thiazol-2-yl)carbamimidoyl)benzo[d][1,3]dioxole-5-carboximidamide], for which the viability at 5 µM reads like this: under setting [1], 43.1%; under setting [2], 40.6%. Further, the viability at 10 µM stood at 41.6% under setting [3] and 7.1% under setting [4].
In the same order, the values of `Nc1nc(Nc2ccccc2SSc2ccccc2Nc2nc(N)nc(-c3ccccc3F)n2)nc(-c2ccccc2F)n1` [MTF 452, N2,N2′-(disulfanediylbis(2,1-phenylene))bis(6-(2-fluorophenyl)-1,3,5-triazine-2,4-diamine)] are 43.6%, 60.5%, 22.3% and 40.3%.
Take `Nc1nc(Nc2ccccc2SSc2ccccc2Nc2nc(N)nc(-c3ccc4ccccc4c3)n2)nc(-c2ccc3ccccc3c2)n1` [MTF 443, N2,N2′-(disulfanediylbis(2,1-phenylene))bis(6-(naphthalen-2-yl)-1,3,5-triazine-2,4-diamine)]: the viability at 5 µM is, setting by setting: under setting [1], 42.3%; under setting [2], 10.2%. Besides, the viability at 10 µM reads like this: under setting [3], 13.8%; under setting [4], 7.8%.
For the compound `COc1cccc(C(=N)NC(=N)Nc2nc3ccccc3s2)c1` [MTF 342, N—(N-(benzo[d]thiazol-2-yl)carbamimidoyl)-3-methoxybenzimidamide], the viability at 5 µM is, setting by setting: under setting [1], 48.6%; under setting [2], 8.6%. The viability at 10 µM was found to be 32.2% under setting [3] and 8.6% under setting [4].
Turning to `N=C(NC(=N)c1cccc(Br)c1)Nc1nc(-c2ccccc2)cs1` [MTF 256, 3-bromo-N—(N-(4-phenylthiazol-2-yl)carbamimidoyl)benzimidamide], the viability at 5 µM under setting [1] turned out to be 93.9% and the viability at 5 µM under setting [2] is 60%. For the same compound, the viability at 10 µM worked out at 66% under setting [3] and 95.7% under setting [4].
Take `Nc1nc(Nc2ccccc2SSc2ccccc2Nc2nc(N)nc(-c3cccnc3)n2)nc(-c2cccnc2)n1` [MTF 330, N2,N2′-(disulfanediylbis(2,1-phenylene))bis(6-(pyridin-3-yl)-1,3,5-triazine-2,4-diamine)]: the viability at 5 µM under setting [1] turned out to be 123% and the viability at 5 µM under setting [2] was found to be 73.9%. Also, the viability at 10 µM under setting [3] was found to be 60.1% and the viability at 10 µM under setting [4] is 41.6%.
On to `Nc1nc(Nc2ccccc2SSc2ccccc2Nc2nc(N)nc(-c3ccccc3[N+](=O)[O-])n2)nc(-c2ccccc2[N+](=O)[O-])n1` [MTF 463, N2,N2′-(disulfanediylbis(2,1-phenylene))bis(6-(2-nitrophenyl)-1,3,5-triazine-2,4-diamine)], for which the viability at 5 µM is, setting by setting: under setting [1], 80%; under setting [2], 74.3%. Further, the viability at 10 µM is, setting by setting: under setting [3], 56.1%; under setting [4], 43.4%.
In the same order, the values of `Cc1csc(NC(=N)NC(=N)c2ccccc2Br)n1` [MTF 287, 2-bromo-N—(N-(4-methylthiazol-2-yl)carbamimidoyl)benzimidamide] are 60.9%, 86.7%, 53.7% and 69.5%.
For `CC1(C)C=Cc2cc(C(=N)NC(=N)Nc3nc4ccccc4s3)ccc2O1` [MTF 388, N—(N-(benzo[d]thiazol-2-yl)carbamimidoyl)-2,2-dimethyl-2H-chromene-6-carboximidamide] the same measures were 61.4%, 65.1%, 55.7% and 18.4%.
